What was measured:
Type in all cases: cell-based
[1] = system: human cervical cancer cell line HeLa; assay: HeLa cell proliferation test using Trametinib and MK-2206; settings: day 4 of the static culture
Experimental: (§1) This aqueous solution was sterilized at 121°C for 20 min in an autoclave. […] Each plate was cultured by being stood still in a CO2 incubator (37°C, 5% CO2). […] The anticancer drugs used were Trametinib (manufactured by Santa Cruz, MEK inhibitor) and MK-2206 (manufactured by Santa Cruz, Akt inhibitor). […]

[2] = system: human lung cancer cell line A549; assay: A549 cell proliferation test using Trametinib and MK-2206; settings: day 4 of the static culture
Experimental: as §1

[3] = system: human lung cancer cell line A549; assay: Effect of Gefitinib on proliferation of A549 cell stimulated with human HB-EGF; settings: DAG 0.015%, day 6
Experimental: This aqueous solution was sterilized at 121°C for 20 min in an autoclave. […] Each plate was cultured by being stood still in a CO2 incubator (37°C, 5% CO2). […] To the culture medium on day 6 was added an ATP reagent (150 µL) (CellTiter-Glo (registered trade mark) Luminescent Cell Viability Assay, manufactured by Promega) to give a suspension, which was stood for about 10 min at room temperature, and the luminescence intensity (RLU value) was measured by FlexStation3 (manufactured by Molecular Devices), and the number of viable cells was measured by subtracting the luminescence value of the medium alone.

[4] = system: human cervical cancer cell line HeLa; assay: Comparison with single layer culture method in cell proliferation test using anticancer drug; settings: day 4
Experimental: This aqueous solution was sterilized at 121°C for 20 min in an autoclave. […] Each plate was cultured by being stood still in a CO2 incubator (37°C, 5% CO2). […] The anticancer drug used was Adriamycin (manufactured by WAKO), Paclitaxel (manufactured by WAKO) or Mitomycin C (manufactured by WAKO). To the culture medium on day 4 was added an ATP reagent (150 µL) (CellTiter-Glo (registered trade mark) Luminescent Cell Viability Assay, manufactured by Promega) to give a suspension, which was stood for about 10 min at room temperature, and the luminescence intensity (RLU value) was measured by FlexStation3 (manufactured by Molecular Devices), and the number of viable cells was measured by subtracting the luminescence value of the medium alone. For WST-8 measurement, a WST-8 solution (manufactured by DOJINDO Laboratories, 15 µL) was added, the mixture was incubated at 37°C for 100 min, the absorbance at 450 nm was measured by an absorbance spectrometer (manufactured by Molecular Devices, SPECTRA MAX 190), and the number of viable cells was measured by subtracting the absorbance of the medium alone.

[5] = system: human cervical cancer cell line HeLa; assay: Cell proliferation test using various anticancer drugs; settings: DAG 0.030% medium; for cell density: 5 days later
Experimental: This aqueous solution was sterilized at 121°C for 20 min in an autoclave. […] The anticancer drug used was Adriamycin (manufactured by WAKO), Paclitaxel (manufactured by WAKO) or Mitomycin C (manufactured by WAKO).
Successively, this plate was cultured by being stood still in a CO2 incubator (37°C, 5% CO2) for 7 days. After culturing for 3, 5, 7 days, to the culture medium was added a WST-8 solution (manufactured by DOJINDO Laboratories, 20 µL), and the mixture was incubated at 37°C for 100 min. The absorbance at 450 nm was measured by an absorbance spectrometer (manufactured by Molecular Devices, SPECTRA MAX 190), and the number of viable cells was measured by subtracting the absorbance of the medium alone. The culture medium containing the cells after 5 days of culture was stirred with a pipette and the obtained stirred solution (20 µL) was mixed with Trypan Blue stain 0.4% (manufactured by Invitrogen, 20 µL) and the cell density was measured under a microscope.

[6] = drug 0.03 µM, deacylated gellan gum addition group (0.015%)
[7] = drug 0.03 µM, single layer culture group
[8] = drug 0.3 µM, deacylated gellan gum addition group (0.015%)
[9] = drug 0.3 µM, single layer culture group
[10] = drug 3 µM, deacylated gellan gum addition group (0.015%)
[11] = drug 3 µM, single layer culture group
[12] = drug 30 µM, deacylated gellan gum addition group (0.015%)
[13] = drug 30 µM, single layer culture group
[14] = drug 0.001 µM, deacylated gellan gum addition group (0.015%)
[15] = drug 0.001 µM, single layer culture group
[16] = drug 0.01 µM, deacylated gellan gum addition group (0.015%)
[17] = drug 0.01 µM, single layer culture group
[18] = drug 0.1 µM, deacylated gellan gum addition group (0.015%)
[19] = drug 0.1 µM, single layer culture group
[20] = drug 1 µM, deacylated gellan gum addition group (0.015%)
[21] = drug 1 µM, single layer culture group
[22] = drug 0.003 µM, deacylated gellan gum addition group (0.015%)
[23] = drug 0.003 µM, single layer culture group

## NC1(c2ccc(-c3nc4ccn5c(=O)[nH]nc5c4cc3-c3ccccc3)cc2)CCC1 [MK-2206]
[1]; [6]
  % Control value of the RLU value (ATP measurement): 57 % Control
[1]; [7]
  % Control value of the RLU value (ATP measurement): 93 % Control
[1]; [8]
  % Control value of the RLU value (ATP measurement): 21 % Control
[1]; [9]
  % Control value of the RLU value (ATP measurement): 84 % Control
[1]; [10]
  % Control value of the RLU value (ATP measurement): 21 % Control
[1]; [11]
  % Control value of the RLU value (ATP measurement): 69 % Control
[1]; [12]
  % Control value of the RLU value (ATP measurement): 0 % Control
[1]; [13]
  % Control value of the RLU value (ATP measurement): 0 % Control
[2]; [6]
  % Control value of the RLU value (ATP measurement): 84 % Control
[2]; [7]
  % Control value of the RLU value (ATP measurement): 93 % Control
[2]; [8]
  % Control value of the RLU value (ATP measurement): 45 % Control
[2]; [9]
  % Control value of the RLU value (ATP measurement): 79 % Control
[2]; [10]
  % Control value of the RLU value (ATP measurement): 21 % Control
[2]; [11]
  % Control value of the RLU value (ATP measurement): 53 % Control
[2]; [12]
  % Control value of the RLU value (ATP measurement): 0 % Control
[2]; [13]
  % Control value of the RLU value (ATP measurement): 0 % Control

## COc1cc2ncnc(Nc3ccc(F)c(Cl)c3)c2cc1OCCCN1CCOCC1 [Gefitinib]
[3]; 0.1 µM, HB-EGF 100 ng/ml
  % Control value of the RLU value (ATP measurement): 91 % Control
[3]; 0.1 µM, HB-EGF no addition
  % Control value of the RLU value (ATP measurement): 89 % Control
[3]; 0.3 µM, HB-EGF 100 ng/ml
  % Control value of the RLU value (ATP measurement): 74 % Control
[3]; 0.3 µM, HB-EGF no addition
  % Control value of the RLU value (ATP measurement): 84 % Control
[3]; 1 µM, HB-EGF 100 ng/ml
  % Control value of the RLU value (ATP measurement): 59 % Control
[3]; 1 µM, HB-EGF no addition
  % Control value of the RLU value (ATP measurement): 77 % Control
[3]; 3 µM, HB-EGF 100 ng/ml
  % Control value of the RLU value (ATP measurement): 53 % Control
[3]; 3 µM, HB-EGF no addition
  % Control value of the RLU value (ATP measurement): 69 % Control

## CC(=O)Nc1cccc(-n2c(=O)n(C3CC3)c(=O)c3c(Nc4ccc(I)cc4F)n(C)c(=O)c(C)c32)c1 [Trametinib]
[1]; [14]
  % Control value of the RLU value (ATP measurement): 73 % Control
[1]; [15]
  % Control value of the RLU value (ATP measurement): 102 % Control
[1]; [16]
  % Control value of the RLU value (ATP measurement): 12 % Control
[1]; [17]
  % Control value of the RLU value (ATP measurement): 93 % Control
[1]; [18]
  % Control value of the RLU value (ATP measurement): 1 % Control
[1]; [19]
  % Control value of the RLU value (ATP measurement): 20 % Control
[1]; [20]
  % Control value of the RLU value (ATP measurement): 1 % Control
[1]; [21]
  % Control value of the RLU value (ATP measurement): 3 % Control
[2]; [14]
  % Control value of the RLU value (ATP measurement): 72 % Control
[2]; [15]
  % Control value of the RLU value (ATP measurement): 71 % Control
[2]; [16]
  % Control value of the RLU value (ATP measurement): 35 % Control
[2]; [17]
  % Control value of the RLU value (ATP measurement): 37 % Control
[2]; [18]
  % Control value of the RLU value (ATP measurement): 2 % Control
[2]; [19]
  % Control value of the RLU value (ATP measurement): 5 % Control
[2]; [20]
  % Control value of the RLU value (ATP measurement): 0 % Control
[2]; [21]
  % Control value of the RLU value (ATP measurement): 1 % Control

## CC(=O)O[C@H]1C(=O)[C@@]2(C)[C@H]([C@H](OC(=O)c3ccccc3)[C@]3(O)C[C@H](OC(=O)[C@H](O)[C@@H](NC(=O)c4ccccc4)c4ccccc4)C(C)=C1C3(C)C)[C@]1(OC(C)=O)CO[C@@H]1C[C@@H]2O [Paclitaxel]
[4]; [14]
  % Control value of the RLU value (ATP measurement): 107 % Control
  % Control value of the absorbance at 450 nm (WST-8 measurement): 125 % Control
[4]; [15]
  % Control value of the RLU value (ATP measurement): 95 % Control
  % Control value of the absorbance at 450 nm (WST-8 measurement): 99 % Control
[4]; [22]
  % Control value of the RLU value (ATP measurement): 34 % Control
  % Control value of the absorbance at 450 nm (WST-8 measurement): 33 % Control
[4]; [23]
  % Control value of the RLU value (ATP measurement): 36 % Control
  % Control value of the absorbance at 450 nm (WST-8 measurement): 32 % Control
[4]; [16]
  % Control value of the RLU value (ATP measurement): 18 % Control
  % Control value of the absorbance at 450 nm (WST-8 measurement): 5 % Control
[4]; [17]
  % Control value of the RLU value (ATP measurement): 10 % Control
  % Control value of the absorbance at 450 nm (WST-8 measurement): 10 % Control
[4]; [6]
  % Control value of the RLU value (ATP measurement): 17 % Control
  % Control value of the absorbance at 450 nm (WST-8 measurement): 3 % Control
[4]; [7]
  % Control value of the RLU value (ATP measurement): 4 % Control
  % Control value of the absorbance at 450 nm (WST-8 measurement): 5 % Control
[5]; drug 0.001 µM
  cell density: 5.3 10^4 cells/mL
[5]; drug 0.001 µM, day 3
  cell number (absorbance at 450 nm, WST-8): 0.276
[5]; drug 0.001 µM, day 5
  cell number (absorbance at 450 nm, WST-8): 0.223
[5]; drug 0.001 µM, day 7
  cell number (absorbance at 450 nm, WST-8): 0.222
[5]; drug 0.01 µM
  cell density: 1.6 10^4 cells/mL
[5]; drug 0.01 µM, day 3
  cell number (absorbance at 450 nm, WST-8): 0.019
[5]; drug 0.01 µM, day 5
  cell number (absorbance at 450 nm, WST-8): < 0
[5]; drug 0.01 µM, day 7
  cell number (absorbance at 450 nm, WST-8): < 0
[5]; drug 0.1 µM
  cell density: 0.9 10^4 cells/mL
[5]; drug 0.1 µM, day 3
  cell number (absorbance at 450 nm, WST-8): < 0
[5]; drug 0.1 µM, day 5
  cell number (absorbance at 450 nm, WST-8): < 0
[5]; drug 0.1 µM, day 7
  cell number (absorbance at 450 nm, WST-8): < 0
[5]; drug 1 µM
  cell density: 0.2 10^4 cells/mL
[5]; drug 1 µM, day 3
  cell number (absorbance at 450 nm, WST-8): < 0
[5]; drug 1 µM, day 5
  cell number (absorbance at 450 nm, WST-8): < 0
[5]; drug 1 µM, day 7
  cell number (absorbance at 450 nm, WST-8): < 0
[1]; [14]
  % Control value of the RLU value (ATP measurement): 104 % Control
[1]; [15]
  % Control value of the RLU value (ATP measurement): 89 % Control
[1]; [22]
  % Control value of the RLU value (ATP measurement): 46 % Control
[1]; [23]
  % Control value of the RLU value (ATP measurement): 15 % Control
[1]; [16]
  % Control value of the RLU value (ATP measurement): 5 % Control
[1]; [17]
  % Control value of the RLU value (ATP measurement): 2 % Control
[2]; [14]
  % Control value of the RLU value (ATP measurement): 93 % Control
[2]; [15]
  % Control value of the RLU value (ATP measurement): 81 % Control
[2]; [22]
  % Control value of the RLU value (ATP measurement): 52 % Control
[2]; [23]
  % Control value of the RLU value (ATP measurement): 31 % Control
[2]; [16]
  % Control value of the RLU value (ATP measurement): 32 % Control
[2]; [17]
  % Control value of the RLU value (ATP measurement): 16 % Control

— patent publication EP3409761B1, “CULTURE MEDIUM COMPOSITION, AND METHOD FOR CULTURING CELL OR TISSUE USING SAID COMPOSITION” (Nissan Chemical Corporation, priority 2012, dated 2014)
